What was measured:
sGC α1/β1 heterodimer = sGC α1/β1 heterodimer (Homo sapiens (Human), UniProt Q02108+Q02153); assay: Cell-based sGC functional assay (CASA assay), cGMP by HTRF; conditions: CHO-K1/sGC cells; for Emax: CHO-K1, cGMP production as percentage of maximum of compound A (set to 100%), read-out: % Activation; for EC50: inflection point of cGMP production, 4P fit, read-out: IP
How it was run: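 cGMP made in CHO-K1/sGC (human α1/β1) cells is read by HTRF after compound treatment for 1 hr at 37° C, following 30 min at 25° C with or without 1 μM DETA-NO; IBMX 0.5 mM present. Values are % of standard compound maximum; 4P fit.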

[1] = target: human recombinant sGC enzyme (Homo sapiens (Human), UniProt Q02108+Q02153); assay: SEC competition binding assay with [3H] Compound B radioligand; conditions: displacement of 1.6 nM [3H] Compound B, 24 h at 37° C.
How it was run: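 Competition format: [3H] Compound B (1.6 nM) displaced from human recombinant sGC over 24 h at 37° C. in triethanolamine pH 7.4 buffer with MgCl2, BSA, DTT, 300 μM DETA/NO and 400 μM GTP (1% DMSO). Gel-filtration eluates counted by liquid scintillation; 1 μM Compound B defined non-specific binding; Ki by one-site fit.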

Row | Compound | Emax (sGC α1/β1 heterodimer) [%] | EC50 (sGC α1/β1 heterodimer) [µM] | Ki [1] [µM] | % Activation (sGC α1/β1 heterodimer; cGMP production as percentage of maximum of compound A (set to 100%)) [%]
1 | CC(C)CCc1nc(-c2nc(N)c3c(n2)NC(=O)C3(C)c2cc(O)ccn2)cn2ncnc12 (stereo not drawn) [Example 119-B, 4-Amino-5-(4-hydroxypyridin-2-yl)-2-(8-isopentyl-[1,2,4]-triazolo[1,5-a]pyrazin-6-yl)-5-methyl-5,7-dihydro-6H-pyrrolo-[2,3-d]pyrimidin-6-one] | 75 | 0.681 | 0.00276 | –
2 | CC1(c2cc(O)c(C(F)(F)F)cn2)C(=O)Nc2nc(-c3cn4ccnc4c(Cc4ccccc4F)n3)nc(N)c21 (stereo not drawn) [Example 146-B, 4-amino-2-(8-{2-fluorobenzyl}imidazo-[1,2-a]pyrazin-6-yl)-5-(4-hydroxy-5-(trifluoromethyl)-pyridin-2-yl)-5-methyl-5,7-dihydro-6H-pyrrolo-[2,3-d]pyrimidin-6-one] | 96 | 2.35 | 0.000378 | –
3 | CC1(c2ccc(O)c(F)c2)C(=O)Nc2nc(-c3cn4ccnc4c(Cc4ccccc4F)n3)nc(N)c21 (stereo not drawn) [Example 24-B, 4-Amino-5-(3-fluoro-4-hydroxyphenyl)-2-{8-[(2-fluorophenyl)methyl]imidazo[1,2-a]pyrazin-6-yl}-5-methyl-5,7-dihydro-6H-pyrrolo[2,3-d]pyrimidin-6-one] | 88 | 0.752 | 0.000241 | –
4 | CC1(c2cc(Cl)c(O)cn2)C(=O)Nc2nc(-c3cn4ccnc4c(Cc4ccccc4F)n3)nc(N)c21 (single isomer, unassigned) [Example 53-B, 4-Amino-5-(4-chloro-5-hydroxypyridin-2-yl)-2-{8-[(2-fluorophenyl)methyl]imidazo[1,2-a]pyrazin-6-yl}-5-methyl-5,7-dihydro-6H-pyrrolo[2,3-d]pyrimidin-6-one] | – | 0.771 | 0.00108 | 144
5 | Cc1cn2cc(-c3nc(N)c4c(n3)NC(=O)C4(C)c3ccc(Cl)c(O)c3)nc(Cc3ccccc3F)c2n1 (stereo not drawn) [Example 100-A, 4-Amino-5-(4-chloro-3-hydroxyphenyl)-2-{8-[(2-fluorophenyl)methyl]-2-methylimidazo[1,2-a]pyrazin-6-yl}-5-methyl-5,7-dihydro-6H-pyrrolo[2,3-d]pyrimidin-6-one] | 106 | 0.652 | 0.000544 | –
6 | CC1(c2cc(Cl)c(O)cn2)C(=O)Nc2nc(-c3cn4ccnc4c(Cc4ccccc4F)n3)nc(N)c21 (single isomer, unassigned) [Example 104-B, 4-Amino-5-(4-chloro-5-hydroxypyridin-2-yl)-2-{8-[(2-fluorophenyl)methyl]imidazo[1,2-a]pyrazin-6-yl}-5-methyl-5,7-dihydro-6H-pyrrolo[2,3-d]pyrimidin-6-one] | 144 | 0.813 | 0.0011 | –
7 | CC1(c2ccc(O)c(Cl)c2)C(=O)Nc2nc(-c3cn4ccnc4c(CC4CCCCC4)n3)nc(N)c21 (stereo not drawn) [Example 89-B, 4-Amino-5-(3-chloro-4-hydroxyphenyl)-2-(8-(cyclohexylmethyl)imidazo[1,2-a]pyrazin-6-yl)-5-methyl-5,7-dihydro-6H-pyrrolo[2,3-d]pyrimidin-6-one] | 127 | 0.809 | 0.000823 | –
8 | CC1(c2cc(O)c(C(F)(F)F)cn2)C(=O)Nc2nc(-c3cn4ccnc4c(Cc4cccc(F)c4)n3)nc(N)c21 (stereo not drawn) [Example 145-B, 4-amino-2-(8-{3-fluorobenzyl}imidazo-[1,2-a]pyrazin-6-yl)-5-(4-hydroxy-5-(trifluoromethyl)pyridin-2-yl)-5-methyl-5,7-dihydro-6H-pyrrolo-[2,3-d]pyrimidin-6-one] | 91 | 2.44 | 0.000416 | –
9 | CC1(c2ccc(O)c(Cl)c2)C(=O)Nc2nc(-c3cn4ccnc4c(Cc4ccc(F)cc4)n3)nc(N)c21 (stereo not drawn) [Example 60-B, 4-Amino-5-(3-chloro-4-hydroxyphenyl)-2-{8-[(4-fluorophenyl)methyl]imidazo[1,2-a]pyrazin-6-yl]-5-methyl-5,7-dihydro-6H-pyrrolo[2,3-d]pyrimidin-6-one] | 138 | 4.38 | 0.00192 | –

Stronger by EC50 (sGC α1/β1 heterodimer), values ahead:

Row | Emax (sGC α1/β1 heterodimer) [%] | EC50 (sGC α1/β1 heterodimer) [µM] | Ki [1] [µM] | % Activation (sGC α1/β1 heterodimer; cGMP production as percentage of maximum of compound A (set to 100%)) [%] | Compound
10 | 101 | 0.627 | 0.00124 | – | CC1(c2cccc(O)c2)C(=O)Nc2nc(-c3cn4ccnc4c(Cc4ccc(Cl)cc4)n3)nc(N)c21 (stereo not drawn) [Example 56-B, 4-Amino-2-{8-[(4-chlorophenyl)methyl]imidazo[1,2-a]pyrazin-6-yl}-5-(3-hydroxyphenyl)-5-methyl-5,7-dihydro-6H-pyrrolo[2,3-d]pyrimidin-6-one]
11 | 164 | 0.601 | 0.000508 | – | CC1(c2ccc(O)c(F)c2)C(=O)Nc2nc(-c3cn4ccnc4c(Cc4cccc(F)c4)n3)nc(N)c21 (stereo not drawn) [Example 125-B, 4-Amino-5-(3-fluoro-4-hydroxyphenyl)-2-{8-[(3-fluorophenyl)methyl]-imidazo[1,2-a]pyrazin-6-yl}-5-methyl-5,7-dihydro-6H-pyrrolo[2,3-d]-pyrimidin-6-one]
12 | 89 | 0.427 | 0.000884 | – | CC1(c2ccc(Cl)c(O)c2)C(=O)Nc2nc(-c3cn4ccnc4c(Cc4cccc(F)c4)n3)nc(NCC(O)C(F)(F)F)c21 (stereo not drawn) [Example 131-AA, 5-(4-Chloro-3-hydroxy-phenyl)-2-{8-[(3-fluoro-phenyl)methyl]imidazo-[1,2-a]pyrazin-6-yl}-5-methyl-4-[(3,3,3-trifluoro-2-hydroxypropyl)amino]-5,7-dihydro-6H-pyrrolo-[2,3-d]pyrimidin-6-one]
13 | 68 | 0.349 | 0.00354 | – | CC1(c2ccc(Cl)c(O)c2)C(=O)Nc2nc(-c3cn4ncnc4c(CCC(F)(F)C(F)(F)F)n3)nc(NCCCC(F)(F)F)c21 (stereo not drawn) [Example 139-A, 5-(4-Chloro-3-hydroxy-phenyl)-5-methyl-2-(8-(3,3,4,4,4-pentafluoro-butyl)-[1,2,4]triazolo-[1,5-a]pyrazin-6-yl)-4-((4,4,4-trifluorobutyl)-amino)-5,7-dihydro-6H-pyrrolo[2,3-d]pyrimidin-6-one]
14 | 121 | 0.313 | 0.00346 | – | CC1(c2ccc(O)c(F)c2)C(=O)Nc2nc(-c3cn4ccnc4c(CCC4CCCCC4)n3)nc(N)c21 (stereo not drawn) [Example 84-B, 4-Amino-2-(8-(2-cyclohexylethyl)imidazo[1,2-a]pyrazin-6-yl)-5-(3-fluoro-4-hydroxyphenyl)-5-methyl-5,7-dihydro-6H-pyrrolo[2,3-d]pyrimidin-6-one]
15 | 111 | 0.26 | 0.000312 | – | CC1(c2ccc(C(F)(F)F)c(O)c2)C(=O)Nc2nc(-c3cn4ccnc4c(Cc4cc(F)cc(F)c4F)n3)nc(N)c21 (stereo not drawn) [Example 33-B, 4-Amino-5-(3-hydroxy-4-(trifluoromethyl)phenyl)-5-methyl-2-{8-[(2,3,5-trifluorophenyl)methyl]imidazo[1,2-a]pyrazin-6-yl}-5,7-dihydro-6H-pyrrolo[2,3-d]pyrimidin-6-one]
16 | 133 | 0.085 | 0.0109 | – | CC1CCC(Cc2nc(-c3nc(N)c4c(n3)NC(=O)C4(C)c3ccc(O)c(Cl)c3)cn3ccnc23)CC1 (single isomer, unassigned) [Example 120-BA, 4-Amino-5-(3-chloro-4-hydroxyphenyl)-5-methyl-2-{8-[(4-methyl-cyclohexyl)methyl]-imidazo[1,2-a]pyrazin-6-yl}-5,7-dihydro-6H-pyrrolo[2,3-d]pyrimidin-6-one]
17 | 152 | 0.078 | 0.00017 | – | CC1(c2ccc(Cl)c(O)c2)C(=O)Nc2nc(-c3cn4ccnc4c(Cc4cc(F)ccc4F)n3)nc(N)c21 (stereo not drawn) [Example 19-A, 4-Amino-5-(4-chloro-3-hydroxyphenyl)-2-{8-[(2,5-difluorophenyl)methyl]imidazo[1,2-a]pyrazin-6-yl}-5-methyl-5,7-dihydro-6H-pyrrolo[2,3-d]pyrimidin-6-one]
18 | 97 | 0.049 | 0.00221 | – | CCCCc1nc(-c2nc(N)c3c(n2)NC(=O)C3(C)c2ccc(F)c(O)c2)cn2ncnc12 (stereo not drawn) [Example 62-B, 4-Amino-2-(8-butyl-[1,2,4]triazolo[1,5-a]pyrazin-6-yl)-5-(4-fluoro-3-hydroxyphenyl)-5-methyl-5,7-dihydro-6H-pyrrolo[2,3-d]pyrimidin-6-one]

From patent US10780092B2, “Fused pyrazine derivatives useful as soluble guanylate cyclase stimulators” (Merck Sharp & Dohme Corp., priority 2016, dated 2020)
